Reference: patent US20260317319A1, “NOVEL ERGOLINES AND METHODS OF TREATING MOOD DISORDERS” (Gilgamesh Pharma Inc., priority 2023, published 2026)
Where two headings read alike, the source gives them in different places.

How the values were obtained:
5-HT2B receptor = target: T1, 5-HT2B receptor (Homo sapiens, UniProt P41595); test: cell-based; type: cell-based; settings: Ca2+ flux; for Emax: HEK293, agonist, HEK293, max dose, read-out: 5-HT2B % Act @ Max Dose; for EC50: agonist, HEK293
T1 construct: expressed in transfected cells; host or cells: HEK293, stably transfected
T1 sequence (P41595 whole entry): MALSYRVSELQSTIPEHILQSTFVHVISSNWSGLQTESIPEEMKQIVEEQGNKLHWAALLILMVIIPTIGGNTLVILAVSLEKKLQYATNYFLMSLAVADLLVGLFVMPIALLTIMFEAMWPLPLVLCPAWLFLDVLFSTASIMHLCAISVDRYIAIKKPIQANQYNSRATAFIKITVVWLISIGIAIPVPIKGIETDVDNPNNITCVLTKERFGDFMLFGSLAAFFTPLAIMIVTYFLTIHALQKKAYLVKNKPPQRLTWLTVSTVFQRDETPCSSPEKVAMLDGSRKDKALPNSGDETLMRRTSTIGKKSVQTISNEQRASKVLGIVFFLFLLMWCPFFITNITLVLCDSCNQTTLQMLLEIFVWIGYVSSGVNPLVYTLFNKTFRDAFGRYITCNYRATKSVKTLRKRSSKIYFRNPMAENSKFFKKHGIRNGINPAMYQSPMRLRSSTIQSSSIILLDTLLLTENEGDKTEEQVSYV
Procedure, shortened: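 FLIPR Tetra fluorescence read-out of calcium flux after compound addition. Receptor-expressing stable lines were used (HEK293 for 2A/2B; CHO with Gα15 for 1A), dye-loaded with Fluo-4 Direct and 2.5 mM final probenecid, 50 min at 37 °C.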

5-HT1A receptor = target: T2, 5-HT1A receptor (Homo sapiens, UniProt P08908); test: cell-based; settings: agonist, Ca2+ flux; for Emax: CHO, CHO cells with Gα15, max dose, read-out: 5-HT1A % Act @ Max Dose; for EC50: CHO cells with Gα15
T2 construct: expressed in transfected cells; host or cells: CHO cells, stably transfected
T2 sequence (P08908 1-422): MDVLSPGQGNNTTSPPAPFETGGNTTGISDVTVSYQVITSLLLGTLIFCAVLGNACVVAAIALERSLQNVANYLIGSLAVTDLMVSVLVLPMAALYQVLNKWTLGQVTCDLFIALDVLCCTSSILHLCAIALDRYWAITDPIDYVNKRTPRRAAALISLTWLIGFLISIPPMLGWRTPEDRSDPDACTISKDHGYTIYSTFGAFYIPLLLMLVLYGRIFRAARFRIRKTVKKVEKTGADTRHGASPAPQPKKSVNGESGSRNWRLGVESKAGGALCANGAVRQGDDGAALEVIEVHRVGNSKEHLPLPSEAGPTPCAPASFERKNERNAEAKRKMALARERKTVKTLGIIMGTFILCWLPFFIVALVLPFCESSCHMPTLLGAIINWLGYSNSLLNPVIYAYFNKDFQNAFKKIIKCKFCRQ
Procedure, shortened: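 Using HEK293 lines for the 5-HT2 subtypes and Gα15-coupled CHO cells for 5-HT1A, compounds were tested as agonists. Fluorescent Ca2+ signal followed dye loading (Fluo-4 Direct, 2.5 mM final probenecid, 50 min, 37 °C).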

5-HT1B receptor = target: T3, 5-HT1B receptor (Homo sapiens, UniProt P28222); test: cAMP accumulation functional assay at 5-HT1B; type: cell-based; settings: agonist, cAMP accumulation; for Emax: max dose, read-out: 5-HT1B % Act @ Max Dose
T3 construct: expressed in transfected cells
T3 sequence (P28222 whole entry): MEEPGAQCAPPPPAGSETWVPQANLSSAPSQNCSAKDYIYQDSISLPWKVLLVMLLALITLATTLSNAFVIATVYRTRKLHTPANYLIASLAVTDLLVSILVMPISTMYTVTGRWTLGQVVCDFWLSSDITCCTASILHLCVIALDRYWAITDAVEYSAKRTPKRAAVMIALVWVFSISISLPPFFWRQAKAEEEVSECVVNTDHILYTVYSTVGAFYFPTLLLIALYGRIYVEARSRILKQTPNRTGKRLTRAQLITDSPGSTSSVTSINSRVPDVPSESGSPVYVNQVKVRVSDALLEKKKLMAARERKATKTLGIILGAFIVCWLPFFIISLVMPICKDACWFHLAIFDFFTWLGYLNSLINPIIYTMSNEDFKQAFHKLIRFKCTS
Procedure: Functional Assay at 5-HT1B. Agonist activity at 5-HT1B was determined using a CAMP accumulation protocol at WuXi AppTec (Hong Kong) Limited according to their standard protocols. Briefly, stably transfected cells were plated in an OptiPlate-384 well plate, incubated at RT for 60 mins, and cAMP standard solution (800 nM, 10 μL) was added to the blank well. Then, 10 μL detection reagent was added to each well, the plate incubated for 60 mins at RT, and the plate read using En Vision.

in vitro [1] = type: in vitro ADME, human; settings: human, microsomes, HLM 0.50 mg/mL, NADPH 1 mM, 1 μM compound, pH 7.4, 37° C., 60 min; for microsomal CLint: read-out: Intrinsic clearance (Clint); for half-life: read-out: half-life (t1/2)
in vitro [2] = type: in vitro ADME, mouse; settings: mouse, microsomes, MLM (male CD-1) 0.50 mg/mL, NADPH 1 mM, 1 μM compound, pH 7.4, 37° C., 60 min; for microsomal CLint: read-out: Intrinsic clearance (Clint); for half-life: read-out: half-life (t1/2)
From the text: MLM Stability Pooled MLM from male CD-1 mice (BIOIVT M00501) were used.

in vitro [3] = type: in vitro ADME, rat; settings: rat, microsomes, RLM (male Sprague-Dawley) 0.50 mg/mL, NADPH 1 mM, 1 μM compound, pH 7.4, 37° C., 60 min; for microsomal CLint: read-out: Intrinsic clearance (Clint); for half-life: read-out: half-life (t1/2)
From the text: RLM Stability Pooled RLM from male Sprague-Dawley rats (Xenotech R1000) were used.

5-HT2A receptor [4] = target: T4, 5-HT2A receptor (Homo sapiens, UniProt P28223); test: biochemical; type: binding; set-up: expressed in transfected cells; host or cells: HEK293, stably transfected; settings: for Ki: [3H]ketanserin 1 nM, HEK293 stable cell line, 1 h, 25 °C
T4 sequence (P28223 whole entry): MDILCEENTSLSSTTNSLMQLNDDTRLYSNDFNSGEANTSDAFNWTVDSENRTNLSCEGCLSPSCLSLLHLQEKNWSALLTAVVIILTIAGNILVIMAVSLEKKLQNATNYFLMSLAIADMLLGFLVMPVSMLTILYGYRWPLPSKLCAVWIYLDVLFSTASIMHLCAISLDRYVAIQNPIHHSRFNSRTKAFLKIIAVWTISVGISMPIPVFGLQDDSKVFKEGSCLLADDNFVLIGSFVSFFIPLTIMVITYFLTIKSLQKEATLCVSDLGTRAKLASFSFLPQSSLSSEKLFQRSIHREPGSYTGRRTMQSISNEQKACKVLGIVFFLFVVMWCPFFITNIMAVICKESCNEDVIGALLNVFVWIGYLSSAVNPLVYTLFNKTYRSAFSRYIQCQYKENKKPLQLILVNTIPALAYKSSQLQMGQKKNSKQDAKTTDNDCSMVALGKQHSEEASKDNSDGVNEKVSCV
Procedure, shortened: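 Binding affinity comes from a [^3H]ketanserin radioligand assay run under literature-adapted conditions.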

5-HT2A receptor [5] = target: T4, 5-HT2A receptor; test: cell-based; type: cell-based; set-up: expressed in transfected cells; host or cells: HEK293, stably transfected; settings: Ca2+ flux; for Emax: HEK293, agonist, HEK293, max dose, read-out: 5-HT2A % Act @ Max Dose; for EC50: agonist, HEK293
Procedure, shortened: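 Receptor agonism was assessed as intracellular calcium mobilization in stably transfected cells, with CHO cells additionally carrying Gα15 for the 5-HT1A readout. Calcium was monitored with Fluo-4 Direct dye.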

5-HT2A receptor [6] = target: T4, 5-HT2A receptor; test: cell-based; type: cell-based; settings: agonist, beta-arrestin recruitment; for EC50: PathHunter, read-out: 5-HT2A Arrestin EC50; for Emax: max dose, read-out: 5-HT2A Arrestin % Act @ Max Dose
Procedure: Arrestin Functional Assay at 5-HT2A. Recruitment of beta-arrestin was determined using a PathHunter assay at Eurofins DiscoverX (Fremont, CA) according to their standard protocols. PathHunter GPCR beta-arrestin assays take advantage of DiscoverX's proprietary Enzyme Fragment Complementation technology. The GPCR is fused in frame with a small enzyme donor fragment ProLink™ (PK) and co-expressed in cells stably expressing a fusion protein of beta-arrestin and the larger, N-terminal deletion mutant of beta-galactosidase. Activation of the GPCR (5-HT2A receptor in this case) stimulates binding of beta-arrestin to the PK-tagged GPCR and forces complementation of the two enzyme fragments, resulting in the formation of an active beta-galactosidase enzyme. This interaction leads to an increase in enzyme activity that can be measured using chemiluminescent PathHunter Detection Reagents. Briefly, PathHunter cells expressing 5-HT2A receptors were seeded in a volume of 20 μL into 384-well plates and incubated at 37° C. for the appropriate time prior to testing. […] Plates were then imaged on a microplate reader and the agonist activity was calculated using the following formula: % Activity=100%×(mean RLU of test sample-mean RLU of vehicle control)/(mean MAX control ligand-mean RLU of vehicle control), where RLU=relative light units.

5-HT2C receptor = target: T5, 5-HT2C receptor (Homo sapiens, UniProt P28335); test: cell-based; settings: read-out: 5-HT2C % Act @ Max Dose
T5 sequence (P28335 33-458): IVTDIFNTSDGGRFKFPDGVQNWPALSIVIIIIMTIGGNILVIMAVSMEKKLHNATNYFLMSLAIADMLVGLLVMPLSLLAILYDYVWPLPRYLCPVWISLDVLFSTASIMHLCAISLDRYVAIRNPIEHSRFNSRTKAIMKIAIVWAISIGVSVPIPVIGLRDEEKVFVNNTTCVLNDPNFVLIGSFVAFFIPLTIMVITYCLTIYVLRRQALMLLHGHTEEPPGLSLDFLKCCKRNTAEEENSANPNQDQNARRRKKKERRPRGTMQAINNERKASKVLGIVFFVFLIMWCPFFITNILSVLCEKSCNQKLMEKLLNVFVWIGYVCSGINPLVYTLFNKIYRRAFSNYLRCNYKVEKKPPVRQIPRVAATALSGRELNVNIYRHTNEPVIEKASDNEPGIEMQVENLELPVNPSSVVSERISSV

Compound	Emax (5-HT2B receptor) [%]	EC50 (5-HT2B receptor) [nM]	Emax (5-HT1A receptor) [%]	EC50 (5-HT1A receptor) [nM]	EC50 (5-HT1B receptor) [nM]	Emax (5-HT1B receptor) [%]	microsomal CLint (in vitro [1]) [µL/min/mg]	half-life (in vitro [1]) [min]	microsomal CLint (in vitro [2]) [µL/min/mg]	half-life (in vitro [2]) [min]	microsomal CLint (in vitro [3]) [µL/min/mg]	half-life (in vitro [3]) [min]	Ki (5-HT2A receptor [4]) [nM]	Emax (5-HT2A receptor [5]) [%]	EC50 (5-HT2A receptor [5]) [nM]	EC50 (5-HT2A receptor [6]) [nM]	Emax (5-HT2A receptor [6]) [%]	Emax (5-HT2C receptor) [%]	potency in receptor binding (5-HT2A receptor [4]; radioligand binding, 5-HT2A)
CCN(CC)C(=O)[C@@H]1C=C2c3cccc4[nH]cc(c34)C[C@H]2N(Cc2cccnc2)C1 [Compound 55, (6aR,9R)—N,N-diethyl-7-(pyridin-3-ylmethyl)-4,6,6a,7,8,9-hexahydroindolo[4,3-fg]quinoline-9-carboxamide]	25.7	> 100000	108	4090	575	82.5	56	24.8	543	2.6	103	13.4	39.7	87.8	158	–	–	–	–
CCNC(=O)[C@@H]1C=C2c3cccc4[nH]cc(c34)C[C@H]2N(Cc2cccc(O)c2)C1 [Compound 64, (6aR,9R)—N-ethyl-7-(3-hydroxybenzyl)-4,6,6a,7,8,9-hexahydroindolo[4,3-fg]quinoline-9-carboxamide]	1.49	> 10000	87	424	4520	68.8	100	13.8	312	4.4	222	6.2	12	75.8	53.3	23.2	52	–	–
CCC(CC)NC(=O)[C@H]1C=C2c3cccc4[nH]cc(c34)C[C@H]2N(C)C1 [Int14a]	1.86	–	70.3	–	–	–	–	–	–	–	–	–	–	33	–	–	44.3	119	–
CCC[C@@H](C)NC(=O)[C@H]1C=C2c3cccc4[nH]cc(c34)C[C@H]2N(C)C1 [Int17a]	5.63	–	88.5	–	–	–	–	–	–	–	–	–	–	63.3	–	–	43.7	112	–
CCN(CC)C(=O)[C@@H]1C=C2c3cccc4[nH]cc(c34)C[C@H]2N(Cc2ccncc2)C1 [Compound 51, (6aR,9R)—N,N-diethyl-7-(pyridin-4-ylmethyl)-4,6,6a,7,8,9-hexahydroindolo[4,3-fg]quinoline-9-carboxamide]	19.3	> 100000	100	1460	190	89.1	34.3	40.4	480	2.9	73.6	18.8	15.6	102	97.8	–	–	–	–
CC[C@@H](C)NC(=O)[C@H]1C=C2c3cccc4[nH]cc(c34)C[C@H]2N(C)C1 [Int8a]	6.87	–	104	–	–	–	–	–	–	–	–	–	–	72.6	–	–	35.5	93.7	–
CCN(CC)C(=O)[C@@H]1C=C2c3cccc4c3C(CN4)C[C@H]2N(C)C1 (mixture of isomers) [Compound 37, (6aR,9R)—N,N-diethyl-7-methyl-4,5,5a,6,6a,7,8,9-octahydroindolo[4,3-fg]quinoline-9-carboxamide]	24.1	–	109	–	–	90.7	–	–	–	–	–	–	–	76.4	–	–	–	–	reduced in potency compared to their dehydro counterparts
CCN(CC)C(=O)[C@@H]1C=C2c3cccc4[nH]cc(c34)C[C@H]2N(Cc2ccc(F)c(OC)c2)C1 [Compound 60, (6aR,9R)—N,N-diethyl-7-(4-fluoro-3-methoxybenzyl)-4,6,6a,7,8,9-hexahydroindolo[4,3-fg]quinoline-9-carboxamide]	23.8	> 100000	53.1	36400	> 10000	31	69.1	20.1	295	4.7	152	9.1	6.18	102	1380	–	–	–	–
CCNC(=O)[C@@H]1C=C2c3cccc4[nH]cc(c34)C[C@H]2N(Cc2cccc(OC)c2)C1 [Compound 63, (6aR,9R)—N-ethyl-7-(3-methoxybenzyl)-4,6,6a,7,8,9-hexahydroindolo[4,3-fg]quinoline-9-carboxamide]	-0.31	> 10000	88.4	6110	> 10000	45.7	442	3.1	1610	0.9	645	2	11.3	91	96.9	12.6	64	–	–
